According to ChEMBL document CHEMBL1149093, “Design and synthesis of new templates derived from pyrrolopyrimidine as selective multidrug-resistance-associated protein inhibitors in multidrug resistance” (J Med Chem, 2004):

What was measured:
[1] = in vivo; conditions: mouse, iv, 20 mg/kg
[2] = in vivo; conditions: mouse, iv, 20 mg/kg; remark: listed apart in the source
[3] = in vivo; conditions: mouse, plasma, iv, 20 mg/kg
[4] = in vivo; conditions: mouse, plasma, ip, 50 mg/kg
[5] = in vivo; conditions: mouse, ip, 50 mg/kg
[6] = in vivo; conditions: mouse, ip, 50 mg/kg; remark: listed apart in the source

AUC [1] | half-life [2] | Cmax [3] | Cmax [4] | AUC [5] | half-life [6] | Compound
6320 ng·h/mL | 118 min | 11.9 µM | – | – | – | Cn1c2ccnc(N3CCOCC3)c2c2ncnc(N3CCN(CCc4ccc(F)c(F)c4)CC3)c21
5100 ng·h/mL | 144 min | 9 µM | 26.4 µM | 30600 ng·h/mL | 412 min | O=[N+]([O-])c1cc([N+](=O)[O-])c2[nH]c3c(N4CCN(CCc5ccc(F)c(F)c5)CC4)nc(CN4CCOCC4)nc3c2c1
14000 ng·h/mL | 182 min | 15 µM | – | – | – | Cn1c2cccc(C(N)=O)c2c2nc(CN3CCOCC3)nc(N3CCN(CCc4ccc(F)c(F)c4)CC3)c21
